Tests used:
Assay in all cases: cells
Design in all cases: CellTiter-Glo 2.0 luminescence proliferation/viability assay, single agents, human tumour cell line panel
SNU-668 = details: SNU668, 96 h; single agent; read-out: IC50 SMACm
How it was run: (§1)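 Human tumour cell lines were seeded into assay plates and held at 37°C with 5% CO2 for twenty-four hours, then exposed in triplicate to rising concentrations of the SMAC mimetic, from 4.5 nM to 10 μM, with DMSO as control. After 96 h, viability was read as CellTiter-Glo2.0 luminescence to derive single-agent IC50 values.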

NCI-H1975 = details: Homo sapiens, NCI-H1975, 96 h; single agent; read-out: IC50 SMACm
How it was run: as §1

LoVo = details: Homo sapiens, LoVo, 96 h; single agent; read-out: IC50 SMACm
How it was run: as §1

RERF-GC-1B = details: 96 h; single agent; read-out: IC50 SMACm
How it was run: as §1

NCI-H838 = details: Homo sapiens, NCI-H838, 96 h; single agent; read-out: IC50 SMACm
How it was run: as §1

HCC1195 = details: 96 h; single agent; read-out: IC50 SMACm
How it was run: as §1

HCA7 = details: HCA-7, 96 h; single agent; read-out: IC50 SMACm
How it was run: as §1

NCI-H23 = details: Homo sapiens, NCI-H23, 96 h; single agent; read-out: IC50 SMACm
How it was run: as §1

NCI-H2087 = details: Homo sapiens, NCI-H2087, 96 h; single agent; read-out: IC50 SMACm
How it was run: as §1

COCM1 = details: CoCM-1, 96 h; single agent; read-out: IC50 SMACm
How it was run: as §1

JVE207 = details: 96 h; single agent; read-out: IC50 SMACm
How it was run: as §1

AGS = details: Homo sapiens, AGS, 96 h; single agent; read-out: IC50 SMACm
How it was run: as §1

COR-L105 = details: Homo sapiens, COR-L105, 96 h; single agent; read-out: IC50 SMACm
How it was run: as §1

SW1116 = details: Homo sapiens, SW 1116, 96 h; single agent; read-out: IC50 SMACm
How it was run: as §1

KM12SM = details: 96 h; single agent; read-out: IC50 SMACm
How it was run: as §1

IC50 (SNU-668): 6.29 µM
IC50 (NCI-H1975): 4.63 µM
IC50 (LoVo): 4.76 µM
IC50 (NCI-H838): 4.18 µM
IC50 (HCC1195): 4.59 µM
IC50 (NCI-H23): 3.42 µM
IC50 (NCI-H2087): 5.05 µM
IC50 (AGS): 4.06 µM
IC50 (SW1116): 4.51 µM
SMILES: CN[C@@H](C)C(=O)Nc1ccc(-c2c(-c3cccnc3OC)nc3cc(C)ccn23)c(C#Cc2ccc3c(C)nccc3c2)n1 [SMACm, BI 891065]
IC50 (RERF-GC-1B): 4.29 µM
IC50 (HCA7): 2.83 µM
IC50 (COCM1): 7.58 µM
IC50 (JVE207): 7.2 µM
IC50 (COR-L105): 4.47 µM
IC50 (KM12SM): 4.31 µM

— article PMC12490239, “Combining BET inhibition with SMAC mimetics restricts tumor growth and triggers immune surveillance in preclinical cancer models” (Cell Reports Medicine, 2025)
